Reference: publication PMC11199504, “New hemisynthetic derivatives of sphaeropsidin phytotoxins triggering severe endoplasmic reticulum swelling in cancer cells” (Scientific Reports, 2024)
Read-outs that look alike come from different tables or passages of the source.

Experiments:
[1] = tested on: A2780R; assay: MTT assay, A2780R (cisplatin-resistant); assay type: cell-based; settings: 72 h, read-out: IC50 determined by MTT assays, A2780R
Text: (§1) Cancer cell lines were obtained from either the European Collection of Cell Cultures (ECACC; Salisbury, UK) or the American Type Culture Collection (ATCC; Manassas, VA). The two glioma cell lines were the U373 (ECACC code 08061901) and Hs683 (ATCC HTB-138) cell lines. The carcinoma cell lines were the A549 non-small cell carcinoma cell line (ATCC code CCL 185) and the MCF-7 mammary breast carcinoma cell line (ATCC code HTB-22). The melanoma cell lines were the mouse B16F10 cells (ATCC code CRL-6475) and the human SKMEL-28 cells (ATCC code HTB-72). The ovarian cancer cell line A2780 and its cisplatin-resistant subline A2780cis were obtained from Sigma-Aldrich (St. Louis, MO, USA). Colon cancer HCT116 cells were obtained from ATCC (CCL-247) and the oxaliplatin-resistant subline HCT116/OxR established in the W. Berger lab[59]. The HeLa cell derivative KB-3-1 and the colchicine-selected, highly ABCB1-overexpressing subline KB-C-1 were generously donated by Dr. D. W. Shen, Bethesda, MD. RKOp53wt colon cancer cells together with the RKOp53KO (homozygous knock-out) subline[60] were generously provided by Dr. Vogelstein from John Hopkins University, Baltimore. The correct origin of all cell models was confirmed by STR during performance of the experiments. All cell lines were cultured in RPMI1640 culture medium supplemented with 10% heat-inactivated fetal bovine serum, 2% L-glutamine (0.6 mg/mL), 2% penicillin/streptomycin (200 IU/mL and 200 μg/mL) and 0.1 mg/mL gentamicin.
(§2) The MTT (3-(4,5-dimethylthiazol-2-yl)-2,5-diphenyl tetrazolium bromide) colorimetric assay has been conducted as described previously. Briefly, cells were seeded 24 h before their treatment with each compound for a period of 72 h. The concentrations tested ranged from 10 nM to 100 µM. Each assay was conducted in sextuplicates. The number of independent experiments is mentioned in the legend of the tables.
(§3) SI Table 1: IC50 determined by MTT assays. Mean concentration (± standard deviation) in µM required to
(§4) reduce the viability of cells by 50% after a 72 h treatment relative to the control.
(§5) Parental sensitive models Drug-resistant models

[2] = tested on: RKO/p53ko; assay: MTT assay, RKO/p53ko; assay type: cell-based; settings: 72 h, read-out: IC50 determined by MTT assays, RKO/p53ko
Text: as §1, §2, §3, §4, §5

[3] = tested on: Parental sensitive models; assay: MTT assay, mean of parental sensitive models; assay type: cell-based; settings: 72 h, read-out: IC50 determined by MTT assays, mean of parental sensitive models
Text: as §1, §2, §3, §4, §5

[4] = tested on: A549, SKMEL-28, U373, MCF7, Hs683, B16F10; assay: MTT colorimetric assay, mean of the six cell lines; assay type: cell-based; settings: for IC50: mean over the six cell lines, 72 h treatment, read-out: IC50 determined by MTT assays, Mean
Text: as §1, §2

[5] = tested on: Hct116/OxR; assay: MTT assay, Hct116/OxR (oxaliplatin-resistant); assay type: cell-based; settings: Homo sapiens, HCT-116, 72 h, read-out: IC50 determined by MTT assays, Hct116/OxR
Text: as §1, §2, §3, §4, §5

[6] = tested on: Drug-resistant models; assay: MTT assay, mean of drug-resistant models; assay type: cell-based; settings: 72 h, read-out: IC50 determined by MTT assays, mean of drug-resistant models
Text: as §1, §2, §3, §4, §5

[7] = tested on: Hs683; assay: MTT colorimetric assay, Hs683; assay type: cell-based; settings: Homo sapiens, Hs 683; 72 h treatment; mean ± SEM; sensitive to apoptosis; read-out: IC50 determined by MTT assays, Hs683
Text: as §1, §2

[8] = tested on: Hct116; assay: MTT assay, Hct116 (parental sensitive); assay type: cell-based; settings: Homo sapiens, HCT-116, 72 h, read-out: IC50 determined by MTT assays, Hct116
Text: as §1, §2, §3, §4, §5

[9] = tested on: KB-3-1; assay: MTT assay, KB-3-1 (parental sensitive); assay type: cell-based; settings: Homo sapiens, KB 3-1, 72 h, read-out: IC50 determined by MTT assays, KB-3-1
Text: as §1, §2, §3, §4, §5

[10] = tested on: KB-C-1; assay: MTT assay, KB-C-1 (ABCB1-overexpressing); assay type: cell-based; settings: KBC-1, 72 h, read-out: IC50 determined by MTT assays, KB-C-1
Text: as §1, §2, §3, §4, §5

[11] = tested on: RKO/P53wt; assay: MTT assay, RKO/P53wt (parental sensitive); assay type: cell-based; settings: 72 h, read-out: IC50 determined by MTT assays, RKO/P53wt
Text: as §1, §2, §3, §4, §5

[12] = biological target: T1, human TopIIa (Homo sapiens, UniProt P11388); assay: Cell-free decatenation assay; assay type: biochemical
T1 construct: purchased TopoGen (Port Orange, FL, USA)
T1 sequence (P11388 whole entry): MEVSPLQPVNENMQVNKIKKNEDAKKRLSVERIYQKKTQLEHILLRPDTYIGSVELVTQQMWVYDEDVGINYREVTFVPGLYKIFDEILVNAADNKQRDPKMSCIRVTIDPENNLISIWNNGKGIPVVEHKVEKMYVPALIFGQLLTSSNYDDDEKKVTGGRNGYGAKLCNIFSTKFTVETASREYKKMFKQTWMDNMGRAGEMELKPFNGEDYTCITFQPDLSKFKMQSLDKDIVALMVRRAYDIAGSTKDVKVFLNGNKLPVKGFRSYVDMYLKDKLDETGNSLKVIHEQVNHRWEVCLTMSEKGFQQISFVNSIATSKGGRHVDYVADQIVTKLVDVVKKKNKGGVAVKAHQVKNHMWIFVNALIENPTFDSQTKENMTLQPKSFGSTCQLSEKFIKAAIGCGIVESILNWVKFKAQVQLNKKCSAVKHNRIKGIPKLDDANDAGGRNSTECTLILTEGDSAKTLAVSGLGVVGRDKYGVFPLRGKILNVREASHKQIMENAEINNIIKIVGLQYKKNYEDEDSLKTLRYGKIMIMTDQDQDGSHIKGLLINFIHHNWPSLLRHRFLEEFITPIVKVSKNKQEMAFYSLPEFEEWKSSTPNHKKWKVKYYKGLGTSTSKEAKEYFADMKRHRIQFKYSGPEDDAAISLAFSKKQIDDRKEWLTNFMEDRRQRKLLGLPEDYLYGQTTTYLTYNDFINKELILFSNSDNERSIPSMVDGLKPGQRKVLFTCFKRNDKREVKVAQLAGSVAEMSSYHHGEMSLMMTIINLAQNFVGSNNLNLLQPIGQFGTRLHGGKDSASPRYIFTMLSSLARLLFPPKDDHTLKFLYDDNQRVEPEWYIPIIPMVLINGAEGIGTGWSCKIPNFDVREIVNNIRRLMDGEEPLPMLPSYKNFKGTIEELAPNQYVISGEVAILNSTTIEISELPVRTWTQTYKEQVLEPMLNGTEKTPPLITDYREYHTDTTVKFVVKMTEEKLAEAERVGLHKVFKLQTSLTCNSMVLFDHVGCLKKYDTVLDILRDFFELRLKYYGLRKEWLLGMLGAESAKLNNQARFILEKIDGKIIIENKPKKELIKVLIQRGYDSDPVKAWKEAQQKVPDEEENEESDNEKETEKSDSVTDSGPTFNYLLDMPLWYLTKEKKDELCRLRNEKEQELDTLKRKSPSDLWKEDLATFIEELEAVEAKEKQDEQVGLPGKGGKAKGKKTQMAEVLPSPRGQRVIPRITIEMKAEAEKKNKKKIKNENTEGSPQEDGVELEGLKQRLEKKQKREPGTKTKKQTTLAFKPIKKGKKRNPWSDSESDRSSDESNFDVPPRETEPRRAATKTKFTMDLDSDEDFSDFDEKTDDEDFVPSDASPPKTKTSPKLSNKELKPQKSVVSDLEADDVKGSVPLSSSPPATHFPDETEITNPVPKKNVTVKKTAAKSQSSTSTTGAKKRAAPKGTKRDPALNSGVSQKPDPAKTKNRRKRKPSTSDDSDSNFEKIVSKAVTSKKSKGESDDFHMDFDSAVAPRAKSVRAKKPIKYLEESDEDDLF
Protocol: The topoisomerase (Top) activity assay kit, including kinetoplast DNA (kDNA and recombinant human TopIIa enzyme, was obtained from TopoGen (Port Orange, FL, USA), agarose from PeqLab (Erlangen, Germany), 50 × TAE buffer from Roth (Karlsruhe, Germany) and ethidium bromide solution (10 mg/mL) from Sigma-Aldrich (Taufkirchen, Germany). Decatenation assays were performed as described previously[62] with slight modifications according to the manufacturer’s protocol. 100 µM of the recently described dual topoisomerase poison P8-D6 served as a positive control, and 5% DMSO as a solvent control. Briefly, the compounds were dissolved in DMSO and diluted to 20× the concentration to be tested. 1 µL of the resulting stock solutions were mixed with 18 µL of a buffer containing 200 ng kDNA and 1 mM ATP. Subsequently, 1 µL of a 1u/µL dilution of TopIIa enzyme was added and incubated at 37 °C for 30 min. Afterwards, the reaction was stopped by addition of Stop buffer, and electrophoresis was carried out on a 1% agarose gel in TAE buffer. The gel was stained with 0.5 µg/mL ethidium bromide, washed with water, and fluorescence images were captured with the LAS4000 system (Fujifilm, Duesseldorf, Germany). All steps were carried out on ice.

[13] = tested on: U373; assay: MTT colorimetric assay, U373; assay type: cell-based; settings: Homo sapiens, U373 MG; 72 h treatment; mean ± SEM; resistant to apoptosis; read-out: IC50 determined by MTT assays, U373
Text: as §1, §2

[14] = tested on: B16F10; assay: MTT colorimetric assay, B16F10; assay type: cell-based; settings: Mus musculus, B16-F10; 72 h treatment; mean ± SEM; sensitive to apoptosis; read-out: IC50 determined by MTT assays, B16F10
Text: as §1, §2

[15] = tested on: A549; assay: MTT colorimetric assay, A549; assay type: cell-based; settings: Homo sapiens, 72 h treatment, mean ± SEM of six replicates of one experiment (1: 7, 13: 6 independent experiments), resistant to apoptosis, read-out: IC50 determined by MTT assays, A549
Text: as §1, §2

[16] = tested on: A2780; assay: MTT assay, A2780 (parental sensitive); assay type: cell-based; settings: Homo sapiens, A2780, 72 h, read-out: IC50 determined by MTT assays, A2780
Text: as §1, §2, §3, §4, §5

Row | SMILES | IC50 [1] [nM] | IC50 [2] [nM] | IC50 [3] [nM] | IC50 ([4]; 72 h) [nM] | IC50 [5] [nM] | IC50 [6] [nM] | IC50 [7] [nM] | IC50 [8] [nM] | IC50 [9] [nM] | IC50 [10] [nM] | IC50 [11] [nM] | inhibition at 500 µM ([12]; at 500 µM, read-out: TopoIIa inhibition) [%] | IC50 [13] [nM] | IC50 [14] [nM] | IC50 [15] [nM] | IC50 [16] [nM] | IC50 fold lower than compound 1 ([4]; cancer cell panel, MTT) | IC50 [4] [nM] | concentration from which TopIIa inhibition trend was observed [12] [µM] | concentration significantly different from the solvent control (TopIIa inhibition) [12] [µM]
1 | C=C[C@]1(C)C=C2C(=O)[C@@]3(O)OC(=O)[C@@]4(CCCC(C)(C)[C@H]34)[C@@]2(O)CC1 [Compound 1, sphaeropsidin A, reference compound] | 2400 ± 100 | 1500 ± 100 | 3000 | 2070 ± 150 | 1700 ± 400 | 4000 | 2310 ± 230 | 3400 ± 500 | 5400 ± 1000 | 8100 ± 700 | 1900 ± 300 | ~50 | 2130 ± 170 | 1550 ± 270 | 1710 ± 260 | 2400 ± 500 |  |  |  | 
2 | CC1(C=CCCCc2ccc3ccc4cccc5ccc2c3c45)C=C2C(=O)C3(O)OC(=O)C4(CCCC(C)(C)C34)C2(O)CC1 (stereo not drawn) [Compound 13] | 1600 ± 90 | 1500 ± 50 | 1000 | 300 | 800 ± 50 | 2000 | 350 ± 20 | 1000 ± 100 | 1900 ± 50 | 3200 ± 600 | 1100 |  | 570 ± 80 | 290 ± 10 | 380 ± 30 | 1600 ± 20 | 5–10 times | 370 ± 40 | ≥ 1 | ≥ 1
3 | CC1(C=CCCCc2ccc3ccc4cccc5ccc2c3c45)C=C2C(O)C3(O)OC(=O)C4(CCCC(C)(C)C34)C2(O)CC1 (stereo not drawn) [Compound 16] | 8300 ± 300 | 6900 ± 400 | 8000 | 6860 ± 530 | 6600 ± 1300 | 9000 | 7340 ± 200 | 7100 ± 200 | 13800 ± 1400 | 15200 ± 1300 | 5600 ± 200 |  | 8880 ± 190 | 5110 ± 420 | 6610 ± 80 | 7700 ± 900 |  |  | ≥ 1 | 
